Several values for one entry are separate records, joined by “and”; a condition that tells them apart may be missing. Identical values can stand only once. Toxic doses and inconclusive results are not listed. Rule for the calls: active = survival T/C of 150% or more; inactive = T/C below 125% in these data.
Tested on: P388 leukemia ip, CD2F1 mice, survival T/C
Assay: NCI In Vivo Anticancer Drug Screen. Data for tumor model P388 Leukemia (intraperitoneal) in CD2F1 (CDF1) mice
Details: endpoint: median survival time, higher = longer survival
How it was run: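 Mice carrying the transplanted tumor received test compound or vehicle. Survival was recorded in each group, and the value is the treated-group measurement divided by that of the vehicle-treated control group.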

[1] = dose: 60.0 mg/kg/injection, schedule: Q01DX005 (ip), vehicle: Klucel (hydroxypropylcellulose) (HPC)
[2] = dose: 120.0 mg/kg/injection, schedule: Q01DX005 (ip), vehicle: Klucel (hydroxypropylcellulose) (HPC)
[3] = dose: 240.0 mg/kg/injection, schedule: Q01DX005 (ip), vehicle: Klucel (hydroxypropylcellulose) (HPC)
[4] = dose: 50.0 mg/kg/injection, schedule: Q01DX005 (ip), vehicle: Klucel (hydroxypropylcellulose) (HPC)
[5] = dose: 100.0 mg/kg/injection, schedule: Q01DX005 (ip), vehicle: Klucel (hydroxypropylcellulose) (HPC)
[6] = dose: 200.0 mg/kg/injection, schedule: Q01DX005 (ip), vehicle: Klucel (hydroxypropylcellulose) (HPC)
[7] = dose: 50.0 mg/kg/injection, schedule: Q01DX009 (ip), vehicle: Klucel (hydroxypropylcellulose) (HPC)
[8] = dose: 100.0 mg/kg/injection, schedule: Q01DX009 (ip), vehicle: Klucel (hydroxypropylcellulose) (HPC)
[9] = dose: 100.0 mg/kg/injection, schedule: Q04DX003 (ip), vehicle: saline with Tween-80
[10] = dose: 60.0 mg/kg/injection, schedule: Q01DX005 (ip), vehicle: saline
[11] = dose: 120.0 mg/kg/injection, schedule: Q01DX005 (ip), vehicle: saline
[12] = dose: 60.0 mg/kg/injection, schedule: Q01DX005 (ip), vehicle: saline with Tween-80
[13] = dose: 120.0 mg/kg/injection, schedule: Q01DX005 (ip), vehicle: saline with Tween-80
[14] = dose: 240.0 mg/kg/injection, schedule: Q01DX005 (ip), vehicle: saline with Tween-80
[15] = dose: 50.0 mg/kg/injection, schedule: Q01DX005 (ip), vehicle: saline with Tween-80
[16] = dose: 100.0 mg/kg/injection, schedule: Q01DX005 (ip), vehicle: saline with Tween-80

Measured: T/C

COc1ccc2c(c1)Sc1c(Cl)c3c(c(Cl)c1=N2)Sc1cc(OC)ccc1N=3
inactive: dose: 100.0 mg/kg/injection, schedule: Q04DX002 (ip), vehicle: saline with Tween-80 102 % of control | dose: 200.0 mg/kg/injection, schedule: Q04DX002 (ip), vehicle: saline with Tween-80 112 % of control | dose: 400.0 mg/kg/injection, schedule: Q04DX002 (ip), vehicle: saline with Tween-80 118 % of control

CCOC(=O)c1cnc2c(OC)cccc2c1Nc1ccc2c(c1)OCO2
inactive: [1] 101 % of control | [2] 97 % of control | [3] 96 % of control

CCOC(=O)C1=C(c2ccccc2)OC(N)=C(C#N)C1c1ccccc1 (centres undefined)
inactive: [4] 107 % of control | [5] 103 % of control | [6] 101 % of control

C=CCOC(CCC)OCC=C
inactive: [7] 97 % of control | [8] 97 % of control

C/C(=N\NC(=S)N1CCCCCC1)c1nccnc1C
inactive: dose: 25.0 mg/kg/injection, schedule: Q01DX005 (ip), vehicle: Klucel (hydroxypropylcellulose) (HPC) 112 % of control | [4] 122 % of control

O=c1[nH]c2ccccc2nc1CBr
inactive: dose: 1.56 mg/kg/injection, schedule: Q01DX009 (ip), vehicle: saline with Tween-80 109 % of control | dose: 3.13 mg/kg/injection, schedule: Q01DX009 (ip), vehicle: saline with Tween-80 109 % of control | dose: 6.25 mg/kg/injection, schedule: Q01DX009 (ip), vehicle: saline with Tween-80 113 % of control | dose: 8.33 mg/kg/injection, schedule: Q01DX009 (ip), vehicle: saline with Tween-80 118 % of control | dose: 12.5 mg/kg/injection, schedule: Q01DX009 (ip), vehicle: saline with Tween-80 113 % of control and 122 % of control | dose: 18.7 mg/kg/injection, schedule: Q01DX009 (ip), vehicle: saline with Tween-80 118 % of control

Cc1nc(Cl)c2c3c(sc2n1)CCCC3
inactive: dose: 18.75 mg/kg/injection, schedule: Q01DX001 (ip), vehicle: saline sonified 95 % of control | dose: 37.5 mg/kg/injection, schedule: Q01DX001 (ip), vehicle: saline sonified 100 % of control | dose: 75.0 mg/kg/injection, schedule: Q01DX001 (ip), vehicle: saline sonified 100 % of control

O=C1COC(c2ccccc2O)=NN1CCCN1CCCC1
inactive: dose: 12.5 mg/kg/injection, schedule: Q01DX001 (ip), vehicle: saline 100 % of control | dose: 25.0 mg/kg/injection, schedule: Q01DX001 (ip), vehicle: saline 100 % of control | dose: 50.0 mg/kg/injection, schedule: Q01DX001 (ip), vehicle: saline 107 % of control | dose: 100.0 mg/kg/injection, schedule: Q01DX001 (ip), vehicle: saline 103 % of control

O=C1Nc2ccccc2C1=Nc1cccc2cnccc12
inactive: [1] 100 % of control | [2] 95 % of control | [3] 98 % of control

CCCCOC(=O)C(C)OC(=O)Nc1cccc(Cl)c1 (centres undefined)
inactive: [9] 90 % of control | dose: 200.0 mg/kg/injection, schedule: Q04DX003 (ip), vehicle: saline with Tween-80 90 % of control | dose: 400.0 mg/kg/injection, schedule: Q04DX003 (ip), vehicle: saline with Tween-80 100 % of control

C=CCOC(=O)OCCCO
inactive: [10] 105 % of control | [11] 99 % of control

Cc1cccc(OCCOC(=O)Nc2cccc(C(F)(F)F)c2)c1
inactive: [12] 99 % of control | [13] 96 % of control | [14] 96 % of control

CN(C)CCCNc1ccc(O)c2c1C(=O)c1ccccc1C2=O
inactive: dose: 12.5 mg/kg/injection, schedule: Q01DX009 (ip), vehicle: water 93 % of control | dose: 25.0 mg/kg/injection, schedule: Q01DX009 (ip), vehicle: water 97 % of control | dose: 50.0 mg/kg/injection, schedule: Q01DX009 (ip), vehicle: water 96 % of control | dose: 100.0 mg/kg/injection, schedule: Q01DX009 (ip), vehicle: water 104 % of control

Cc1cc(=O)oc2c3c4c(cc12)CCCN4CCC3
inactive: dose: 100.0 mg/kg/injection, schedule: Q04DX003 (ip), vehicle: Klucel (hydroxypropylcellulose) (HPC) 111 % of control | dose: 200.0 mg/kg/injection, schedule: Q04DX003 (ip), vehicle: Klucel (hydroxypropylcellulose) (HPC) 109 % of control

O=CNC(Cc1ccccc1)C(=O)O (centres undefined)
inactive: [15] 94 % of control | [16] 102 % of control

CN(C)C(=O)N1OC2CCC1CC2
inactive: [10] 100 % of control | [11] 100 % of control | dose: 240.0 mg/kg/injection, schedule: Q01DX005 (ip), vehicle: saline 100 % of control

CC1(C)OC2(C)CCC1C1C2N1C(=O)C(c1ccccc1)c1ccccc1 (centres undefined)
inactive: [4] 109 % of control | [5] 100 % of control | [6] 109 % of control

CC(=O)[C@]1(O)Cc2c(O)c3c(c(O)c2C(OC2CC(N=[N+]=[N-])C(O)[C@@H](CN=[N+]=[N-])O2)C1)C(=O)c1c(O)cccc1C3=O (some centres undefined)
inactive: dose: 3.13 mg/kg/injection, schedule: Q04DX003 (ip), vehicle: saline with Tween-80 93 % of control | dose: 6.25 mg/kg/injection, schedule: Q04DX003 (ip), vehicle: saline with Tween-80 93 % of control | dose: 12.5 mg/kg/injection, schedule: Q04DX003 (ip), vehicle: saline with Tween-80 96 % of control | dose: 25.0 mg/kg/injection, schedule: Q04DX003 (ip), vehicle: saline with Tween-80 96 % of control | dose: 50.0 mg/kg/injection, schedule: Q04DX003 (ip), vehicle: saline with Tween-80 91 % of control | [9] 105 % of control

COc1cc2c(cc1OC)CN1CCc3cc(OC)c(OC)cc3[C@@H]1C2
inactive: dose: 12.5 mg/kg/injection, schedule: Q01DX005 (ip), vehicle: saline with Tween-80 100 % of control | dose: 25.0 mg/kg/injection, schedule: Q01DX005 (ip), vehicle: saline with Tween-80 102 % of control | [15] 104 % of control and 98 % of control

O=C(O)c1cocc1C(=O)N1Cc2cc3ccccc3nc2C1
inactive: dose: 8.0 mg/kg/injection, schedule: Q01DX009 (ip), vehicle: saline with Tween-80 94 % of control | dose: 16.0 mg/kg/injection, schedule: Q01DX009 (ip), vehicle: saline with Tween-80 92 % of control | dose: 32.0 mg/kg/injection, schedule: Q01DX009 (ip), vehicle: saline with Tween-80 94 % of control | dose: 64.0 mg/kg/injection, schedule: Q01DX009 (ip), vehicle: saline with Tween-80 108 % of control | dose: 128.0 mg/kg/injection, schedule: Q01DX009 (ip), vehicle: saline with Tween-80 103 % of control

OCC1CC(c2ccccc2)=NO1 (centres undefined)
inactive: [1] 101 % of control | [2] 100 % of control | [3] 101 % of control

CCCCN(CCCC)CCNc1ccc(C)c2sc3cc(C)ccc3c(=O)c12
inactive: [15] 116 % of control | [16] 102 % of control | dose: 200.0 mg/kg/injection, schedule: Q01DX005 (ip), vehicle: saline with Tween-80 98 % of control

CCCCNc1ccc2nnc(C)n2n1
inactive: [4] 103 % of control | dose: 100.0 mg/kg/injection, schedule: Q01DX005 (ip), vehicle: DMSO 98 % of control | [5] 108 % of control | dose: 200.0 mg/kg/injection, schedule: Q01DX005 (ip), vehicle: DMSO 104 % of control | [6] 100 % of control

COC(=O)N1c2ccccc2C(c2ccccc2)=NC1(C)C#N (centres undefined)
inactive: [12] 98 % of control | [13] 99 % of control | [14] 100 % of control

COC(=O)c1nc(N)nc(C(=O)OC)c1C(=O)c1ccc(OC)cc1
inactive: [1] 101 % of control | [2] 101 % of control

Cc1c(C)c2ccccc2[nH]c1=O
inactive: [7] 101 % of control | [8] 104 % of control | dose: 200.0 mg/kg/injection, schedule: Q01DX009 (ip), vehicle: Klucel (hydroxypropylcellulose) (HPC) 113 % of control | dose: 400.0 mg/kg/injection, schedule: Q01DX009 (ip), vehicle: Klucel (hydroxypropylcellulose) (HPC) 100 % of control

CN(Cc1ccc(Nc2ccccc2)cc1)C1CCCCC1
inactive: dose: 50.0 mg/kg/injection, schedule: Q01DX009 (ip), vehicle: saline + Tween-80 + alcohol 103 % of control and 106 % of control | dose: 100.0 mg/kg/injection, schedule: Q01DX009 (ip), vehicle: saline + Tween-80 + alcohol 110 % of control and 111 % of control | dose: 200.0 mg/kg/injection, schedule: Q01DX009 (ip), vehicle: saline + Tween-80 + alcohol 109 % of control and 112 % of control | dose: 400.0 mg/kg/injection, schedule: Q01DX009 (ip), vehicle: saline + Tween-80 + alcohol 114 % of control

— PubChem BioAssay AID330 (DTP/NCI, 2004)
